From US7208146B2, “Methods of treating lymphoma and leukemia” (Genitope Corporation, priority 1996, dated 2007) come the findings set out here.

Structures are written as SMILES.

For this assay, the system named is parental BW5147.G.1.4 cells. Nature of the assay: MTX sensitivity (growth cut off) of the parental cell line. The assay is classed as cell-based. The procedure:
The parental (i e., non-transfected) BW5147.G.1.4 cells barely grow in the presence of 10 nM MTX. By visual inspection 3 to 5 days after plating, greater than about 98 percent of the parental BW5147.G.1.4 cells are killed when 1×10^4 cells are placed in 2 ml of medium containing 20 nM MTX in the well of a 24 well plate (this level of MTX is referred to as the growth cut off for the parental BW5147.G.1.4 cell line). At 30 nM MTX, colonies of BW5147.G.1.4 cells are seen at a frequency of less than 10^−7.
The transfected and selected cells (“selectants”) are plated in a range of MTX concentrations ranging from 10 to 100 nM; the cells are plated at a density of 1 to 5×10^4 cells per well in a 24 well plate (Costar); the selectants are plated at the same density of cells as was used to determine the level of MTX at which > about 98% of the parental cells were killed. This is done because MTX irreversibly binds to DHFR so that the number of cells present in a given volume effects the concentration of MTX required to kill the cells; that is if a higher density of cell is used, a higher concentration of MTX will be required to kill about 98% of the cells [For example when the parental cells are plated at a density of 1×10^4 cells/2 ml medium in the well of a 24 well plate 20 nM MTX is sufficient to kill >98% cells in a 3 to 5 day assay. If the density is increased two-fold (1×10^4 cells in ml medium), 25 nM MTX is required for >98% killing. If 5×10^4 cells are placed in 2 ml of medium in the well of a 24 well plate, 30 nM MTX is required to achieve >98% killing.]
Eight selectant clones having the highest levels of expression of DR were chosen for further manipulation. These eight selectant clones were then tested for their sensitivity to MTX. Each clone was plated at a density of 2×10^4 cells/well in a 24 well plate. Each well contained 1 ml of medium containing RPMI-1640, 10% dialyzed FCS and MTX. The clones were grown in the presence of either 3, 10, 30, 60 or 90 nM MTX. Non-transfected BW5147.G.1.4 cells were also grown in the above range of MTX as a control. Clones which grew in MTX levels at least 2–3 fold higher than that tolerated by the parental BW5147.G.1.4 (typically less than or equal to 10 nM MTX) were selected for further analysis. Four of the selectant clones grew in greater than or equal to 30 nM MTX and were retained; these clones are the primary transfectants chosen for amplification. All 4 clones which grew in >30 nM MTX were analyzed for the ability to express DR molecules on the surface by an ELISA. The cell surface ELISA was performed as follows.

Turning to `CN(Cc1cnc2nc(N)nc(N)c2n1)c1ccc(C(=O)N[C@@H](CCC(=O)O)C(=O)O)cc1` [MTX, methotrexate], the “growth of parental cells in the presence of MTX” value (10 nM MTX) is recorded as “barely grow”. The “parental BW5147.G.1.4 cells killed” value (20 nM MTX, 1×10^4 cells in 2 ml medium, well of a 24 well plate, visual inspection 3 to 5 days after plating) is given as “greater than 98%”. The “frequency of colonies of BW5147.G.1.4 cells” value (30 nM MTX) is reported as “less than 10^−7”. The “MTX concentration sufficient to kill >98% of parental cells” value (1×10^4 cells/2 ml medium, 24 well plate, 3 to 5 day assay) came to 20 nM. Further, the “MTX level tolerated by parental BW5147.G.1.4” value (2×10^4 cells/well in 1 ml, 24 well plate, RPMI-1640 with 10% dialyzed FCS) is “less than or equal to 10 nM”. The “MTX concentration required for >98% killing of parental cells” value (5×10^4 cells in 2 ml medium, 24 well plate) is 30 nM and the “MTX concentration required for >98% killing of parental cells” value (density increased two-fold (1×10^4 cells in ml medium)) stood at 25 nM.
